Measured values taken from ChEMBL document CHEMBL1201862, “PubChem BioAssay data set” (2004).
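Exposure lasted 48 hours, with cells grown in 96-well plates and compounds tested at five concentrations. GI50: concentration for 50% inhibition of growth.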 Active and inactive are the calls of the source. No stated cut-off is given here; in the data, active = GI50 up to about 1.1 µM and inactive = higher.

Columns and labels:
Assay in all cases: DTP human tumour cell line panel, 48 h
CAKI-1 = system: CAKI-1
UO-31 = system: UO-31
HCT-116 = system: HCT-116
PC-3 = system: PC-3
MDA-MB-231 = system: MDA-MB-231
SK-MEL-2 = system: SK-MEL-2
SR = system: SR
HOP-92 = system: HOP-92
HCT-15 = system: HCT-15
RPMI-8226 = system: RPMI-8226
OVCAR-4 = system: OVCAR-4
SF-268 = system: SF-268
OVCAR-5 = system: OVCAR-5
OVCAR-8 = system: OVCAR-8
HT-29 = system: HT-29
MOLT-4 = system: MOLT-4
OVCAR-3 = system: OVCAR-3
RXF 393 = system: RXF 393
NCI-H460 = system: NCI-H460
HOP-62 = system: HOP-62

Question: What does the source list for `O=C(/C=C/c1ccc(O)c(O)c1)OCCc1cccc2ccccc12`?
Answer: GI50 (CAKI-1): 8.36 µM (inactive); GI50 (UO-31): 4.21 µM (inactive); GI50 (HCT-116): 3.24 µM (inactive); GI50 (PC-3): 3.88 µM (inactive); GI50 (MDA-MB-231): 2.33 µM (inactive); GI50 (SK-MEL-2): 3.44 µM (inactive); GI50 (SR): 0.841 µM (active); GI50 (HOP-92): 10.6 µM (inactive); GI50 (HCT-15): 1.28 µM; GI50 (RPMI-8226): 2.3 µM (inactive); GI50 (OVCAR-4): 10.7 µM (inactive); GI50 (SF-268): 4.76 µM (inactive); GI50 (OVCAR-5): 14.4 µM (inactive); GI50 (OVCAR-8): 5.07 µM (inactive); GI50 (HT-29): 13.4 µM (inactive); GI50 (MOLT-4): 1.61 µM (inactive); GI50 (OVCAR-3): 2.32 µM (inactive); GI50 (RXF 393): 9.44 µM (inactive); GI50 (NCI-H460): 12.1 µM (inactive)

Question: Which results are given for `O=C(c1ccc([N+](=O)[O-])cc1)N1CCCC1`?
Answer: GI50 (CAKI-1): > 100 µM (inactive); GI50 (UO-31): > 100 µM (inactive); GI50 (HCT-116): > 100 µM (inactive); GI50 (PC-3): > 100 µM (inactive); GI50 (MDA-MB-231): > 100 µM (inactive); GI50 (SR): > 100 µM (inactive); GI50 (HOP-62): > 100 µM (inactive); GI50 (HOP-92): > 100 µM (inactive); GI50 (HCT-15): > 100 µM; GI50 (RPMI-8226): > 100 µM (inactive); GI50 (OVCAR-4): > 100 µM (inactive); GI50 (SF-268): > 100 µM (inactive); GI50 (OVCAR-5): > 100 µM (inactive); GI50 (OVCAR-8): > 100 µM (inactive); GI50 (HT-29): > 100 µM (inactive); GI50 (MOLT-4): > 100 µM (inactive); GI50 (OVCAR-3): > 100 µM (inactive); GI50 (RXF 393): > 100 µM (inactive); GI50 (NCI-H460): > 100 µM (inactive)

Question: `CCSC1=C(C#N)C2(CCCCC2)C2=C(O)CC(C)(C)CC2=N1` was tested. Which GI50 (CAKI-1) did it give?
Answer: 35.3 µM (inactive)

Question: And the GI50 (UO-31)?
Answer: 16.6 µM (inactive)

Question: And the GI50 (HCT-116)?
Answer: > 100 µM (inactive)

Question: And the GI50 (PC-3)?
Answer: 28.9 µM (inactive)

Question: What about the GI50 (MDA-MB-231) of the same compound?
Answer: 45.3 µM (inactive)

Question: What about the GI50 (SK-MEL-2) of the same compound?
Answer: 54.8 µM (inactive)

Question: And the GI50 (SR)?
Answer: > 100 µM (inactive)

Question: What about the GI50 (HOP-92) of the same compound?
Answer: 11.4 µM (inactive)

Question: What about the GI50 (HCT-15) of the same compound?
Answer: 64.7 µM

Question: What about the GI50 (RPMI-8226) of the same compound?
Answer: 70.3 µM (inactive)

Question: What about the GI50 (OVCAR-4) of the same compound?
Answer: 18.8 µM (inactive)

Question: And the GI50 (SF-268)?
Answer: 45 µM (inactive)

Question: And the GI50 (OVCAR-5)?
Answer: > 100 µM (inactive)

Question: What about the GI50 (OVCAR-8) of the same compound?
Answer: 36.5 µM (inactive)

Question: What about the GI50 (HT-29) of the same compound?
Answer: > 100 µM (inactive)

Question: What about the GI50 (MOLT-4) of the same compound?
Answer: > 100 µM (inactive)

Question: And the GI50 (RXF 393)?
Answer: 52.7 µM (inactive)

Question: What about the GI50 (NCI-H460) of the same compound?
Answer: < 0.01 µM (active)

Question: `O=C1/C(=C/c2ccccc2)CN(C(=O)CCN2CCOCC2)C/C1=C\c1ccccc1` was tested. Which GI50 (CAKI-1) did it give?
Answer: 10.1 µM (inactive)

Question: And the GI50 (UO-31)?
Answer: 8.97 µM (inactive)

Question: What about the GI50 (HCT-116) of the same compound?
Answer: 0.778 µM (active)

Question: What about the GI50 (PC-3) of the same compound?
Answer: 2.75 µM (inactive)

Question: What about the GI50 (MDA-MB-231) of the same compound?
Answer: 3.47 µM (inactive)

Question: And the GI50 (SK-MEL-2)?
Answer: 2.55 µM (inactive)

Question: And the GI50 (SR)?
Answer: 1.06 µM (active)

Question: What about the GI50 (HOP-62) of the same compound?
Answer: 8.45 µM (inactive)

Question: What about the GI50 (HOP-92) of the same compound?
Answer: 9.79 µM (inactive)

Question: And the GI50 (HCT-15)?
Answer: 2.14 µM

Question: And the GI50 (RPMI-8226)?
Answer: 0.519 µM (active)

Question: And the GI50 (OVCAR-4)?
Answer: 2.94 µM (inactive)

Question: What about the GI50 (SF-268) of the same compound?
Answer: 2.87 µM (inactive)

Question: What about the GI50 (OVCAR-5) of the same compound?
Answer: 7.36 µM (inactive)

Question: What about the GI50 (OVCAR-8) of the same compound?
Answer: 2.99 µM (inactive)

Question: And the GI50 (HT-29)?
Answer: 1.95 µM (inactive)

Question: And the GI50 (MOLT-4)?
Answer: 2.58 µM (inactive)

Question: What about the GI50 (OVCAR-3) of the same compound?
Answer: 3.91 µM (inactive)

Question: And the GI50 (RXF 393)?
Answer: 4.38 µM (inactive)

Question: And the GI50 (NCI-H460)?
Answer: 2.36 µM (inactive)

Question: What does the source list for `N=C(N)N/N=C/c1c(-c2ccc([N+](=O)[O-])cc2)nc2sccn12`?
Answer: GI50 (CAKI-1): 2.43 µM (inactive); GI50 (UO-31): 2.34 µM (inactive); GI50 (HCT-116): 1.63 µM (inactive); GI50 (PC-3): 1.59 µM (inactive); GI50 (MDA-MB-231): 1.68 µM (inactive); GI50 (SK-MEL-2): 1.76 µM (inactive); GI50 (SR): 1.73 µM (inactive); GI50 (HOP-62): 1.67 µM (inactive); GI50 (HOP-92): 1.9 µM (inactive); GI50 (HCT-15): 10.2 µM; GI50 (RPMI-8226): 5.27 µM (inactive); GI50 (OVCAR-4): 1.46 µM (inactive); GI50 (SF-268): 1.85 µM (inactive); GI50 (OVCAR-5): 1.7 µM (inactive); GI50 (OVCAR-8): 2.12 µM (inactive); GI50 (HT-29): 1.53 µM (inactive); GI50 (MOLT-4): 1.53 µM (inactive); GI50 (OVCAR-3): 1.37 µM (inactive); GI50 (RXF 393): 2.55 µM (inactive); GI50 (NCI-H460): 2 µM (inactive)

Question: Which GI50 (CAKI-1) does the source give for `CCCCCCCC1c2cc3nc(cc4[nH]c(cc5nc(cc([nH]2)[C@@]1(C)CC(=O)N(C)C)C(C)=C5CCC(=O)O)c(CCC(=O)O)c4C)C=C3C` (some centres not stated) here?
Answer: 39 µM (inactive)

Question: What about the GI50 (UO-31) of the same compound?
Answer: 18.2 µM (inactive)

Question: What about the GI50 (HCT-116) of the same compound?
Answer: 17.1 µM (inactive)

Question: What about the GI50 (PC-3) of the same compound?
Answer: 23.8 µM (inactive)

Question: What about the GI50 (MDA-MB-231) of the same compound?
Answer: 17 µM (inactive)

Question: What about the GI50 (SK-MEL-2) of the same compound?
Answer: 18.8 µM (inactive)

Question: And the GI50 (SR)?
Answer: 19.9 µM (inactive)

Question: And the GI50 (HOP-62)?
Answer: 20.5 µM (inactive)

Question: And the GI50 (HOP-92)?
Answer: 21.2 µM (inactive)

Question: What about the GI50 (HCT-15) of the same compound?
Answer: 20.3 µM

Question: And the GI50 (RPMI-8226)?
Answer: 17.7 µM (inactive)

Question: What about the GI50 (OVCAR-4) of the same compound?
Answer: 32.8 µM (inactive)

Question: What about the GI50 (SF-268) of the same compound?
Answer: 20.8 µM (inactive)

Question: What about the GI50 (OVCAR-5) of the same compound?
Answer: 25.5 µM (inactive)

Question: And the GI50 (HT-29)?
Answer: 18.6 µM (inactive)

Question: What about the GI50 (OVCAR-3) of the same compound?
Answer: 17.5 µM (inactive)

Question: And the GI50 (RXF 393)?
Answer: 17.8 µM (inactive)

Question: What about the GI50 (NCI-H460) of the same compound?
Answer: 20.8 µM (inactive)

Question: `CC(=O)CC(O)(C(F)(F)Cl)C(F)(F)Cl` was tested. Which GI50 (CAKI-1) did it give?
Answer: > 10 µM (inactive)

Question: And the GI50 (UO-31)?
Answer: > 10 µM (inactive)

Question: What about the GI50 (HCT-116) of the same compound?
Answer: > 10 µM (inactive)

Question: And the GI50 (PC-3)?
Answer: > 10 µM (inactive)

Question: What about the GI50 (MDA-MB-231) of the same compound?
Answer: > 10 µM (inactive)

Question: What about the GI50 (SK-MEL-2) of the same compound?
Answer: > 10 µM (inactive)

Question: What about the GI50 (SR) of the same compound?
Answer: > 10 µM (inactive)

Question: And the GI50 (HOP-62)?
Answer: > 10 µM (inactive)

Question: And the GI50 (HOP-92)?
Answer: > 10 µM (inactive)

Question: What about the GI50 (HCT-15) of the same compound?
Answer: > 10 µM

Question: And the GI50 (RPMI-8226)?
Answer: > 10 µM (inactive)

Question: What about the GI50 (OVCAR-4) of the same compound?
Answer: > 10 µM (inactive)

Question: And the GI50 (SF-268)?
Answer: > 10 µM (inactive)

Question: And the GI50 (OVCAR-8)?
Answer: > 10 µM (inactive)

Question: What about the GI50 (HT-29) of the same compound?
Answer: > 10 µM (inactive)

Question: What about the GI50 (MOLT-4) of the same compound?
Answer: > 10 µM (inactive)

Question: And the GI50 (OVCAR-3)?
Answer: > 10 µM (inactive)

Question: And the GI50 (RXF 393)?
Answer: > 10 µM (inactive)

Question: What about the GI50 (NCI-H460) of the same compound?
Answer: > 10 µM (inactive)

Question: Which GI50 (CAKI-1) does the source give for `O=C(Cl)C1=C(c2ccccc2)C1c1ccccc1` (configuration not stated) here?
Answer: > 100 µM (inactive)

Question: What about the GI50 (HCT-116) of the same compound?
Answer: > 100 µM (inactive)

Question: What about the GI50 (PC-3) of the same compound?
Answer: > 100 µM (inactive)

Question: What about the GI50 (MDA-MB-231) of the same compound?
Answer: > 100 µM (inactive)

Question: And the GI50 (SK-MEL-2)?
Answer: > 100 µM (inactive)

Question: What about the GI50 (SR) of the same compound?
Answer: > 100 µM (inactive)

Question: What about the GI50 (HOP-62) of the same compound?
Answer: > 100 µM (inactive)

Question: What about the GI50 (HOP-92) of the same compound?
Answer: > 100 µM (inactive)

Question: And the GI50 (HCT-15)?
Answer: > 100 µM

Question: And the GI50 (RPMI-8226)?
Answer: > 100 µM (inactive)

Question: What about the GI50 (OVCAR-4) of the same compound?
Answer: > 100 µM (inactive)

Question: And the GI50 (SF-268)?
Answer: > 100 µM (inactive)

Question: And the GI50 (OVCAR-5)?
Answer: > 100 µM (inactive)

Question: And the GI50 (OVCAR-8)?
Answer: > 100 µM (inactive)

Question: And the GI50 (HT-29)?
Answer: > 100 µM (inactive)

Question: And the GI50 (MOLT-4)?
Answer: > 100 µM (inactive)

Question: And the GI50 (OVCAR-3)?
Answer: > 100 µM (inactive)

Question: And the GI50 (RXF 393)?
Answer: > 100 µM (inactive)

Question: And the GI50 (NCI-H460)?
Answer: > 100 µM (inactive)
